# Laboratory results from publication PMC2796602 (Journal of the American Chemical Society, 2009).
# Counter-ions that a name gives are not always drawn. No end group written: not given here.
# What was measured:
# [1] = system: hypoxia-induced gene expression in MCF7 cells; experiment: Gene expression profiling with Affymetrix Human Gene ST 1.0 microarrays; assay type: cell-based; settings: 300 μM DFO
# [2] = target: GST-tagged CH1 domain of human p300 (aa residues 323-423) (Homo sapiens, UniProt Q09472); experiment: SPR binding to immobilized p300-CH1-GST
# p300-CH1-GST fusion = p300-CH1-GST fusion (Homo sapiens, UniProt Q09472); experiment: CD spectroscopy of p300-CH1-GST fold; settings: CD spectra
# [3] = target: p300-CH1-GST/HIF-1α C-TAD complex (Homo sapiens, UniProt Q09472); experiment: Fluorescence polarization competition assay; assay type: binding
# MCF7 cells = experiment: Cell viability assay; assay type: cell-based; settings: Homo sapiens, MCF7, 24 h
# HIF-1α levels in cells = experiment: Western blot of HIF-1α levels; assay type: cell-based, human; settings: 200 nM, 300 μM DFO
# mice = settings: cited from earlier work
# [4] = target: p300-CH1-GST fusion protein (GST-tagged CH1 domain of human p300, aa residues 323-423) (human, UniProt Q09472 323-423); experiment: fluorescence polarisation
# p300-CH1-GST fusion protein (GST-tagged CH1 domain of human p300, aa residues 323-423), sequence (Q09472 323-423): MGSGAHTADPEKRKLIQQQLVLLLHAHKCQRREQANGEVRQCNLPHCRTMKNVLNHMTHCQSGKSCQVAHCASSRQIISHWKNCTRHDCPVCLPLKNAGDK
# GST-tagged CH1 domain of human p300 (aa residues 323-423), sequence (Q09472 323-423): as above
# p300-CH1-GST fusion, sequence (Q09472 323-423): as above
# p300-CH1-GST/HIF-1α C-TAD complex, sequence (Q09472 323-423, one chain of several): as the sequence (Q09472 323-423) above
molecule,measurement,setting,value
"CC(=O)N(O)CCCCCNC(=O)CCC(=O)N(O)CCCCCNC(=O)CCC(=O)N(O)CCCCCN [DFO, desferrioxamine mesylate]",number of transcripts affected (2-fold or more) by DFO treatment alone,[1],580
same,number of transcripts induced by at least 4-fold (P < 0.01),[1],43
"CN1C(=O)[C@]2(Cc3cn([C@]45C[C@@]67SS[C@@](CO)(C(=O)N6[C@H]4Nc4ccccc45)N(C)C7=O)c4ccccc34)SS[C@@]1(CO)C(=O)N2C [compound 2, chetomin]",Kd,[2],540 nM
same,off-rate (Kd),"[2]; SPR, 100 μM DTT",0.0033 s⁻¹
same,concentration causing structural changes / unfolding of p300-CH1-GST,p300-CH1-GST fusion,1 µM
same,IC50,[3],540 ± 180 nM
same,GI50,MCF7 cells,180 ± 40 nM
same,levels of HIF-1α in hypoxic cells,HIF-1α levels in cells,remained constant
same,effect on vascularization in mice,mice,inhibit vascularization in mice
"SMDESGLPQLTSYDCEVNAPIQGSRNLLQGEELLRALDQVN (peptide, UniProt Q16665 786-826, looked up, also: fluorescein label, position not given here) [fluorescein-labeled C-TAD domain of human HIF-1α (residues 786-826)]",binding result,[4],binds
